Consider 15 compounds from patent US20240228481A1, “NOVEL SULFONAMIDE SERIES OF QR2 INHIBITORS TO TACKLE OXIDATIVE STRESS AND COGNITIVE DECLINE” (CARMEL HAIFA UNIVERSITY ECONOMIC CORPORATION LTD., priority 2021, published 2024).

The structures appear in SMILES notation. Where only a bound is given, the exact number is not on record here.

Common to all, as to type: biochemical
Test [1] deals with T1, QR1 (NQO1) (Homo sapiens, UniProt P15559).
T1 construct: purchased Sigma-Aldrich
Briefly: Selectivity assay with QR1 in place of QR2, fluorescence readout. As to the method:
(§1) The enzymatic activity of QR2 (10 nM) was measured using menadione (both Sigma-Aldrich) as substrate and dihydrobenzylnicotamide (BNAH; Tocris) as co-substrate (Boutin et al., 2005). The reaction was performed in 50 mM Tris HCl, 150 mM NaCl 0.01% Tween-20 pH=8.5 (Sigma-Aldrich) at room temperature. Briefly, 3 μL of menadione alone (200 μM) or a mixture of menadione and QR2 (200 μM of menadione and 10 nM of QR2) were dispensed in 1536-well black Nunc plates (Thermo-Fisher) using a Multidrop™ Combi Reagent Dispenser (Thermo-Fisher) and pre-incubated with compounds for 10 min. BNAH (200 μM) was then added (3 μL) to the reaction using a BioNex Solutions BNX 1536 plate washer and the plates were incubated for another 10 min. […] The initial HTS was done with approximately 200,000 compounds at a single concentration of 5 μM. The chemical libraries used were Selleck Chemicals Bioactives, the Drug-like set from Enamine, HitFinder collection from Maybridge, Spectrum Collection from Microsource, Lopac from Sigma-Aldrich and the diversity sets from ChemDiv and ChemBridge. Initial “hit” compounds were defined as causing >30% reduction of enzyme activity. Compounds suspected to be fluorescent were re-assayed in an absorbance assay at 350 nm using the same reaction but in a higher volume (100 μL), in a transparent plate (Greiner Bio-One). “Hit” compounds resulting from both the fluorescence and absorbance assay were tested in a dose-response, and median inhibition concentration (IC50) values were determined. In parallel, the same dose response was used in a selectivity assay where QR2 enzyme was replaced by QR1 (also known as—NQO1, 10 nM; Sigma-Aldrich).
(§2) In order to establish a varied, flexible and chemically amenable starting point from which to develop such inhibitors, the inventors ran a standardized QR2 assay (see methods) against ˜200,000 compounds, from a varied assortment of chemical libraries. […] Compounds that replicated the initial hit result were then assayed similarly, against NQO1, to evaluate compound specificity (FIG. 1B). From the HTS, a series of compounds containing a sulfonamide central linker, with an amine on one side and a heterocycle on the other, were identified and selected for SAR development (FIG. 1C).

In test [2] the target is T2, QR2 (Homo sapiens, UniProt P16083).
T2 sequence (P16083 1-231): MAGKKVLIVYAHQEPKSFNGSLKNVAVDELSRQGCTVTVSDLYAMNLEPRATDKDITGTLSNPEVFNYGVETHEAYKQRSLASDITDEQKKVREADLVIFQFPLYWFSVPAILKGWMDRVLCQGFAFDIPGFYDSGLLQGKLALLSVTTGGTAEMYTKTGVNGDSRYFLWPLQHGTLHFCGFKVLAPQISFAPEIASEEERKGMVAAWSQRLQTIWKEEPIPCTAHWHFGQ
The test can be described thus: QR2 enzymatic activity assay (menadione/BNAH), fluorescence readout. Set-up: purchased Sigma-Aldrich. As to the method: (§3) The enzymatic activity of QR2 (10 nM) was measured using menadione (both Sigma-Aldrich) as substrate and dihydrobenzylnicotamide (BNAH; Tocris) as co-substrate (Boutin et al., 2005). The reaction was performed in 50 mM Tris HCl, 150 mM NaCl 0.01% Tween-20 pH=8.5 (Sigma-Aldrich) at room temperature. Briefly, 3 μL of menadione alone (200 μM) or a mixture of menadione and QR2 (200 μM of menadione and 10 nM of QR2) were dispensed in 1536-well black Nunc plates (Thermo-Fisher) using a Multidrop™ Combi Reagent Dispenser (Thermo-Fisher) and pre-incubated with compounds for 10 min. BNAH (200 μM) was then added (3 μL) to the reaction using a BioNex Solutions BNX 1536 plate washer and the plates were incubated for another 10 min. […] The initial HTS was done with approximately 200,000 compounds at a single concentration of 5 μM. The chemical libraries used were Selleck Chemicals Bioactives, the Drug-like set from Enamine, HitFinder collection from Maybridge, Spectrum Collection from Microsource, Lopac from Sigma-Aldrich and the diversity sets from ChemDiv and ChemBridge. Initial “hit” compounds were defined as causing >30% reduction of enzyme activity. […] “Hit” compounds resulting from both the fluorescence and absorbance assay were tested in a dose-response, and median inhibition concentration (IC50) values were determined. In parallel, the same dose response was used in a selectivity assay where QR2 enzyme was replaced by QR1 (also known as—NQO1, 10 nM; Sigma-Aldrich).
(§4) In order to establish a varied, flexible and chemically amenable starting point from which to develop such inhibitors, the inventors ran a standardized QR2 assay (see methods) against ˜200,000 compounds, from a varied assortment of chemical libraries.

The target in test [3] is T1, QR1 (NQO1). The test can be described thus: Selectivity assay with QR1 in place of QR2, absorbance readout. The method, then: as §1, §2
In test [4] the target is T2, QR2. Briefly: QR2 enzymatic activity assay (menadione/BNAH), absorbance readout at 350 nm. Set-up: purchased Sigma-Aldrich. The method, then:
as §3, §4

T1 sequence (P15559 whole entry): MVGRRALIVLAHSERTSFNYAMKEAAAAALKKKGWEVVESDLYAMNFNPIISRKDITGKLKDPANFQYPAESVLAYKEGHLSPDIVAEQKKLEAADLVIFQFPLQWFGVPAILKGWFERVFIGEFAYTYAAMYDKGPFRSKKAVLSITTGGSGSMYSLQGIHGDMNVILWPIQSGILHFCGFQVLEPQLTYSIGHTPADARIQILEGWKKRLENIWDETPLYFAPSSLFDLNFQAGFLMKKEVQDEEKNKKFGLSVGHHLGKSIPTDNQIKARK

As to `CN(C)S(=O)(=O)c1cccc2ccccc12` [PCM-0071569], the IC50 in test [1] and in test [2] was more than 9.8 µM each time.
Regarding `COCCNC(=O)N1CCN(S(=O)(=O)c2c(C)c(C)c(C)c(C)c2C)CC1` [PCM-0072788], the IC50 in test [1] and in test [2] was more than 9.8 µM in each case.
In the case of `Cc1c(C)c(C)c(S(=O)(=O)N2CCNC(=O)C2)c(C)c1C` [PCM-0083647], the results for the IC50 in test [1] and in test [2] were more than 9.8 µM and 7.04 µM, respectively.
As for `COc1cc(NS(C)(=O)=O)ccc1Cc1c2ccccc2nc2ccccc12` [PCM-0090313], the IC50 in test [1] and in test [2] was more than 9.8 µM throughout.
Regarding `CS(=O)(=O)N(Cc1cccnc1)C1CN(C(=O)c2c[nH]c3ccccc23)C1` [PCM-0105406], the IC50 was more than 9.99 µM in test [3], more than 9.9 µM in test [1], 8.43 µM in test [4] and more than 9.9 µM in test [2].
With `CCCn1cc(C2CCN(S(=O)(=O)c3ccc(C(C)(C)C)cc3)CC2)c2cccnc21` [PCM-0105813], the IC50 in test [3] is more than 9.99 µM; in test [1], more than 9.9 µM; in test [4] it was more than 9.99 µM; in test [2] it was more than 9.9 µM.
Take `CCCn1cc(C2=CCN(S(=O)(=O)Cc3ccccc3)CC2)c2cccnc21` [PCM-0105851]: the IC50 in test [3] is more than 9.99 µM; in test [1], more than 9.9 µM; in test [4], 9.05 µM; in test [2], more than 9.9 µM.
For the compound `COCC1CN(S(=O)(=O)Cc2ccccc2)CC12CCNCC2` (stereo not shown) [PCM-0109036], the IC50 is more than 9.99 µM in test [3], more than 9.9 µM in test [1], more than 9.99 µM in test [4] and more than 9.9 µM in test [2].
For `CC(=O)N1CCOc2ccc(S(=O)(=O)N3CCCc4ccccc43)cc21` [PCM-0119249], the IC50 was 3.48 µM in test [3], 4.7 µM in test [1], more than 9.99 µM in test [4] and more than 9.9 µM in test [2].
As to `CCOC(=O)c1c(S(=O)(=O)N(CC)c2cccc(C)c2)c(C)n(C)c1C` [PCM-0119438], the IC50 was more than 9.99 µM in test [3], 5.39 µM in test [1], 8.98 µM in test [4] and 3.59 µM in test [2].
For `CCOC(=O)c1c(S(=O)(=O)N2CCN(Cc3ccccc3)CC2)c(C)n(C)c1C` [PCM-0119478] the same measures were more than 9.99 µM, more than 9.9 µM, more than 9.99 µM and more than 9.9 µM.
For `CCOC(=O)c1c(S(=O)(=O)N(CCC(C)C)Cc2ccco2)c(C)n(C)c1C` [PCM-0120203] the same measures were more than 9.9 µM, 3.79 µM, 8.53 µM and 8.21 µM.
For `CCOC(=O)c1cc(-c2ccc(OC)c(S(=O)(=O)N3CCCc4ccccc43)c2)on1` [PCM-0120247], the IC50 is more than 9.99 µM in test [3], more than 9.9 µM in test [1], more than 9.99 µM in test [4] and more than 9.9 µM in test [2].
`CCCS(=O)(=O)Nc1ccc2c(c1)C(=O)Nc1cc(C)ccc1O2` [PCM-0120253]: the IC50 was more than 9.99 µM in test [3], 4.6 µM in test [1], 8.89 µM in test [4] and more than 9.9 µM in test [2].
For `CCCS(=O)(=O)N1CCCc2cc(NC(=O)c3ccco3)ccc21` [PCM-0120563] the same measures were more than 9.99 µM, more than 9.9 µM, more than 9.99 µM and more than 9.9 µM.

What is called IC50 is the concentration that gives 50% inhibition.
